ChEMBL document CHEMBL1201862, “PubChem BioAssay data set” (2004)
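Interpolation was linear, between the two tested concentrations surrounding the appropriate level; five concentrations were tested over 48 hours in 96-well plates. The concentration for 50% growth inhibition is given as GI50.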 Calls of active or inactive are those of the source. Rule as the data show it: active = GI50 up to about 1.1 µM and inactive = higher.

Assays:
Experiment in all cases: DTP human tumour cell line panel, 48 h
SK-OV-3 = test system: SK-OV-3
DMS-273 = test system: DMS-273
IGROV-1 = test system: IGROV-1
OVCAR-3 = test system: OVCAR-3
KM12 = test system: KM12
NCI-H460 = test system: NCI-H460
OVCAR-4 = test system: OVCAR-4
K562 = test system: K562
OVCAR-8 = test system: OVCAR-8
CAKI-1 = test system: CAKI-1
RPMI-8226 = test system: RPMI-8226
UACC-62 = test system: UACC-62
UACC-257 = test system: UACC-257
SK-MEL-5 = test system: SK-MEL-5
DMS-114 = test system: DMS-114
RXF 393 = test system: RXF 393
SN12C = test system: SN12C
KM-20L2 = test system: KM-20L2
SF-539 = test system: SF-539
MOLT-4 = test system: MOLT-4

Measured: GI50

Brc1ccc2[nH]c3c(C4=NCCC4)nccc3c2c1
inactive: SK-OV-3 26.7 µM | DMS-273 14.4 µM | IGROV-1 18.7 µM | OVCAR-3 61 µM | KM12 41.5 µM | NCI-H460 9.95 µM | OVCAR-4 17.1 µM | K562 11.3 µM | OVCAR-8 13.5 µM | CAKI-1 19.6 µM | RPMI-8226 9.27 µM | UACC-62 9.73 µM | UACC-257 16.9 µM | SK-MEL-5 8.47 µM | DMS-114 14.5 µM | RXF 393 16.3 µM | SN12C 19.1 µM | KM-20L2 8.17 µM | SF-539 9.53 µM | MOLT-4 8.45 µM
